SMILES strings stand for the structures.

Assay [1] has as its system PANC-1 cells. Put plainly: Scratch (wound healing) assay. The assay is classed as cell-based, human. The following applies: PANC-1, 1.35 µM, 6 h and 24 h. The text has this: Metastasis remains the greatest challenge in the clinical management of cancer. Cell migration is a key process that, during the whole cascade of cancer development, contributes to tumor invasion and metastasis. The scratch assay is a common in vitro technique used to assess two-dimensional cell migration and motility. It involves creating an artificial scratch or “wound” in a confluent monolayer of cells and then monitoring the progression of the wound over time. Therefore, a wound healing assay was used to evaluate the effect of compound 12 on the cell migration ability of PANC-1 cells.
Totals of 6 × 10^5 PANC-1 cells/well were grown to confluence in 6-well plates, and a fixed-width wound was created in the cell monolayer using a sterile 10 µL micropipette tip. Cells were treated with DMSO or 1.35 µM of compound 12 and images of the wound were captured at different time points (0, 6, and 24 h) using an inverted NIKON TE 2000-U microscope from Nikon Instruments Inc. (Izasa, Carnaxide, Portugal) at 100× magnification with a DXM1200F digital camera (Nikon Instruments Inc., Amstelveen, The Netherlands) and NIS-Elements microscope imaging software (version 4; Nikon Instruments Inc.). Wound closure was calculated by subtracting the wound area (measured using Fiji Software, version 1.54f) at the indicated time point of treatment from the wound area at the starting point (0 h).

The test system of assay [2] is PANC-1 cells (pancreatic ductal adenocarcinoma). Nature of the assay: Sulforhodamine B (SRB) antiproliferative assay, PANC-1. The assay is classed as cell-based, human. On the procedure: (§1) The antiproliferative properties of andrographolide and all prepared derivatives (2–26) were evaluated against a panel of different cancer cell lines, including human pancreatic ductal adenocarcinoma (PANC-1), colorectal adenocarcinoma (HCT116), melanoma (A375), breast adenocarcinoma (MCF-7) and a non-tumorigenic colon (CCD-18Co) cell line using the sulforhodamine B assay.
(§2) Human breast adenocarcinoma MCF-7, pancreatic ductal adenocarcinoma PANC-1, melanoma A375, and non-tumorigenic colon CCD-18Co cell lines were purchased from ATCC (Rockville, MD, USA). Human colorectal adenocarcinoma HCT116 cells were kindly provided by B. Vogelstein (The Johns Hopkins Kimmel Cancer Center, Baltimore, MD, USA). Tumor cells were routinely cultured in RPMI-1640 medium with UltraGlutamine from Biowest (VWR, Carnaxide, Portugal) supplemented with 10% fetal bovine serum (FBS) from Biowest (VWR, Carnaxide, Portugal), except for the PANC-1 cells, which were grown in DMEM (4.5 g/L glucose) with stable L-glutamine and sodium pyruvate and supplemented with 10% FBS. The non-tumorigenic CCD-18Co cells were cultured in EMEM (Lonza, VWR, Carnaxide, Portugal), supplemented with 10% FBS. All cells were incubated at 37 °C in a humidified atmosphere of 5% CO2. Routine mycoplasma testing was performed using the MycoAlert™ PLUS mycoplasma detection kit (Lonza).
(§3) For the evaluation of the compound effect on cell proliferation, human cell lines were seeded in 96-well plates at a density of 5.0 × 10^3 (HCT116, MCF-7, PANC-1, A375, and CCD-18Co) cells per well, for 24 h. Cells were then treated with serial dilutions of the compound (ranging from 0.63 to 30 µM), for an additional 48 h incubation period. The growth inhibitory effects were assessed by SRB assay, as described in [58], and the half-maximal inhibitory concentration (IC50 values) were determined for each cell line using the GraphPad Prism software version 7.0 (La Jolla, CA, USA). Culture medium containing a maximum of 0.05% dimethyl sulfoxide (DMSO) was used as negative control.
(Sulforhodamine B stains cellular protein and so reports cell mass.)

Assay [3] has as its system PANC-1 cells. Put plainly: Drug combination assay with 5-fluorouracil (SRB, CompuSyn). It is filed as cell-based, human. The following applies: PANC-1, 48 h.
Protocol: Using the CompuSyn software (version 1.0), a multiple drug effect analysis was performed for each combination, to determine combination index (CI) and dose-reduction index (DRI) values. CI values indicate the effect of combining multiple drugs as synergistic (CI < 1), additive (CI = 1), or antagonistic (CI > 1). DRI values represent the fold decrease in the dose of a drug needed when in combination to achieve the same efficacy as the drug alone. DRI values > 1 are favorable given the concern for toxicity when combining multiple drugs.
The effect on cell proliferation was analyzed by SRB assay. […] Synergistic interactions of drugs were indicated as CI < 1, antagonist interactions as CI > 1.1, and additive effects as 1 < CI < 1.1.
Assay [4] relates to HCT116 cells (colorectal adenocarcinoma). Nature of the assay: Sulforhodamine B (SRB) antiproliferative assay, HCT116. The assay is classed as cell-based. The following applies: Homo sapiens, HCT-116, HCT116, 48 h, mean ± SEM of four to six independent experiments. On the procedure: as §1, §2, §3
Assay [5] concerns MCF-7 cells (breast adenocarcinoma). Put plainly: Sulforhodamine B (SRB) antiproliferative assay, MCF-7. It is filed as cell-based. The following applies: Homo sapiens, MCF7, MCF-7, 48 h, mean ± SEM of four to six independent experiments. On the procedure: as §1, §2, §3

In general, IC50 refers to the concentration at which inhibition is half-maximal. By IC10 is commonly meant the concentration at which the effect reaches the 10% level. A higher IC10 goes with weaker potency. Consider `C=C1CC[C@@H]2[C@](C)(COC(C)=O)[C@H](OC(C)=O)CC[C@@]2(C)[C@@H]1C[C@H](C1=CCOC1=O)n1cc(-c2ccc(Br)cc2)nn1` [Compound 12, (12R)-4-bromophenyl-1,2,3-triazole-3,19-diacetoxy-14-deoxy-andrographolide], for which the “wound closure compared to control” value in the assay on PANC-1 cells [1] is given as “significantly reduced the wound closure”. Moreover, the IC50 stood at 3.4 ± 0.9 µM in assay [2] (Homo sapiens, PANC-1, 48 h, SRB, mean ± SEM of four to six independent experiments); 1.7 ± 0.2 µM in assay [4]; 6.8 ± 0.3 µM in assay [5]. This compound came in with an IC10 in assay [2] (PANC-1, concentration which has no significant effect on cell proliferation) of 1.35 µM. For the same compound, the “combination index (CI)” value came out at 0.87 with PANC-1 cells [3] (5-FU 3.75 µM + 1.35 µM of compound 12) and 0.90 with PANC-1 cells [3] (5-FU 7.5 µM + 1.35 µM of compound 12).

(Values after PMC12114840, “Exploring the Anticancer Properties of 1,2,3-Triazole-Substituted Andrographolide Derivatives” (Pharmaceuticals, 2025).)
